# Experimental data as given in patent US5006515A, “Pharmaceuticals, phosphorus-containing 2-isoxazolines and isoxazoles contained therein” (Hoechst Aktiengesellschaft, priority 1987, dated 1991).
# Like-named read-outs stand apart in the source and are kept apart here.
# Columns and labels:
# active Arthus reaction = assay: Active Arthus reaction in the rat; assay type: in vivo, Sprague-Dawley rats
# Experimental: The experimental animals used were female and male Sprague-Dawley rats with a body weight between 80 and 100 g which received subcutaneous injections into the tail-head of 0.5 ml of an emulsion of pertussis vaccine and ovalbumin in liquid paraffin. After two weeks, the rats were divided into groups each of 8 animals. 24 hours and 1 hour before induction of the Arthus reaction by injection of 0.1 ml of a 0.4% strength ovalbumin solution into the right hind paw, the particular test substance or the pure vehicle (positive control) was administered orally, sodium chloride solution was injected into the left paw. One group of unsensitized animals (negative control group) was likewise treated with ovalbumin in order to be able to rule out nonspecific reactions to the protein. The parameter used for measuring the action of the product was the percentage change in the increase in paw volume compared with that in the control group which was sensitized but untreated (positive control) 4 hours after ovalbumin challenge, when the swelling had reached its maximum.
# Acute toxicity = assay: Acute toxicity; parameters: species or system mice; conditions: mouse, in vivo, single dose, mortality within 7 days
# Experimental: The LD50 values were determined by the standard method via the mortality occurring within 7 days in NMRI (Naval Medical Research Institute) mice (6 animals per dose) after a single intraperitoneal (i.p.) or intravenous (i.v.) dose.
# peritoneal macrophages = assay: Stimulation of the release of lysosomal enzymes from peritoneal macrophages (exocytosis); conditions: single i.p. dose of 40 mg/kg; maximum activation by Example 34 = 100%
# leucine aminopeptidase = assay: Inhibition of leucine aminopeptidase; assay type: biochemical; conditions: substrate L-leucine 4-nitroanilide
# Experimental: The activity of the enzyme aminopeptidase B was determined photometrically using the substrate L-lysine 2-naphthylamide at room temperature. […] In the same way, the inhibition of leucine aminopeptidase was investigated using L-leucine 4-nitroanilide as enzyme substrate. The IC50 values are compiled in Table 6.
# [1] = tested on: DTH reaction to sheep erythrocytes; assay: Delayed-type hypersensitivity (DTH) reaction to sheep erythrocytes; assay type: in vivo, female NMRI mice; conditions: single i.p. dose of 40 mg/kg; maximal stimulation by Example 34 = 100%
# Experimental: Groups each comprising 5 female NMRI mice with a body weight of 18 to 20 g were formed, and each animal was given 10^6 or 10^9 sheep red blood cells intravenously. Sheep erythrocytes are regarded in immunology as a standard antigen with which it is possible to check cellular and humoral immunoreactivity, especially the functioning of the T-cell-dependent component of the immune system, the so-called T-helper cells. The test substances were administered, in intraperitoneal doses of 5 to 100 mg/kg in physiological saline, at the same time as the antigen. After 5 days, each animal was given an injection of 2×10^8 sheep erythrocytes into the footpad. 24 hours later, the swelling of the foot was measured. The foot swelling is induced by a skin reaction of the delayed type (DTH reaction) and, as is known to those skilled in the art, is a measure of the cellular immune response (J. Immunol. 101 (1968), 830-845). The test results obtained with the product of Example 34, by way of example, are compiled in Table 7 and illustrate that the compounds of the formula I--administered prophylactically--are able to increase the cellular immune response after immunization with the antigen by stimulation of the T-cell system, with the stimulant action reaching its optimum in this experiment at a dose of 25 mg/kg.
# [2] = Rattus norvegicus, po, 4 h, oral dose 35 mg/kg, 4 h after ovalbumin challenge, read-out: Active Arthus reaction % change
# [3] = Rattus norvegicus, oral dose 70 mg/kg, 4 h after ovalbumin challenge, read-out: Active Arthus reaction % change
# [4] = Rattus norvegicus, po, 4 h, oral dose 50 mg/kg, 4 h after ovalbumin challenge
# [5] = Rattus norvegicus, po, 4 h, read-out: Active Arthus reaction % change
structure (smiles),measurement,setting,value
"COP(=O)(OC)C1CC(c2ccccc2)=NO1 (racemic) [Example 5, Dimethyl 3-phenyl-2-isoxazolin-5-ylphosphonate]",Active Arthus reaction % change,"active Arthus reaction; oral dose 100 mg/kg, 4 h after ovalbumin challenge",-20%
same,LD50 at 168 h,Acute toxicity; ip,300 to 600 mg/kg
same,Relative stimulation of macrophage activity: Exocytosis,peritoneal macrophages,54%
"CP(=O)(NCC(=O)OCc1ccccc1)C1CC(c2ccccc2)=NO1 (stereo not drawn) [57/58, N-[3-Phenyl-2-isoxazolin-5-yl(P-methyl)phosphinoyl]glycine benzyl ester]",change in vivo at 12 mg/kg,"active Arthus reaction; Rattus norvegicus, po, 4 h, oral dose 12 mg/kg, 4 h after ovalbumin challenge",22%
same,LD50 at 168 h,Acute toxicity; iv,50 to 100 mg/kg
"CCOP(=O)(OCC)C1CC(c2ccccc2)=NO1 (stereo not drawn) [Example 1, Diethyl 3-phenyl-2-isoxazolin-5-ylphosphonate]",Leucine aminopeptidase IC50,leucine aminopeptidase,65 μug/ml
"CP(C)(=O)C1CC(c2ccccc2)=NO1 (stereo not drawn) [Example 17, 3-Phenyl-2-isoxazolin-5-yldimethylphosphine oxide]",change in vivo at 35 mg/kg,active Arthus reaction; [2],-34%
same,LD50 at 168 h,Acute toxicity; iv,> 200 mg/kg
"CCOP(=O)(O)C1CC(c2ccccc2)=NO1 (stereo not drawn) [Example 27, Monoethyl 3-phenyl-2-isoxazolin-5-ylphosphonate]",change in vivo at 70 mg/kg,active Arthus reaction; [3],108%
same,LD50 at 168 h,Acute toxicity; iv,> 200 mg/kg
same,Relative stimulation of the DTH reaction,[1],94%
"CCOP(=O)(O)C1CC(c2ccc(OC)cc2)=NO1 (stereo not drawn) [Example 28, Monoethyl ammonium 3-(4-methoxyphenyl)-2-isoxazolin-5-ylphosphonate]",change in vivo at 25 mg/kg,"active Arthus reaction; Rattus norvegicus, oral dose 25 mg/kg, 4 h after ovalbumin challenge, read-out: Active Arthus reaction % change",-12%
same,LD50 at 168 h,Acute toxicity; iv,> 200 mg/kg
Cc1ccc(C2=NOC(P(C)(=O)O)C2)cc1 (stereo not drawn) [Example 30],Relative stimulation of the DTH reaction,[1],76%
CP(=O)(O)C1CC(Cc2ccccc2)=NO1 (stereo not drawn) [Example 31],change in vivo at 50 mg/kg,active Arthus reaction; [4],66%
same,LD50 at 168 h,Acute toxicity; iv,> 200 mg/kg
CP(=O)(O)C1CC(c2cccc3ccccc23)=NO1 (stereo not drawn) [Example 32],change in vivo at 50 mg/kg,active Arthus reaction; [4],42%
same,LD50 at 168 h,Acute toxicity; ip,600 to 1200 mg/kg
"CC(C)(C)C1=NOC(P(=O)(O)O)C1 (stereo not drawn) [Example 33, 3-tert.butyl-2-isoxazolin-5-ylphosphonic acid]",change in vivo at 100 mg/kg,active Arthus reaction; [5],-15%
same,LD50 at 168 h,Acute toxicity; iv,> 200 mg/kg
O=P(O)(O)CC1CC(c2ccccc2)=NO1 (stereo not drawn) [Example 39],change in vivo at 50 mg/kg,active Arthus reaction; [4],24%
same,LD50 at 168 h,Acute toxicity; ip,600 to 1200 mg/kg
same,Relative stimulation of the DTH reaction,[1],136%
O=P(O)(O)C1CC(c2ccc(Cl)cc2)=NO1 (stereo not drawn) [Example 40],change in vivo at 50 mg/kg,active Arthus reaction; [4],-23%
same,LD50 at 168 h,Acute toxicity; iv,> 200 mg/kg
O=P(O)(O)CC1CC(c2ccc(Cl)cc2)=NO1 (stereo not drawn) [Example 41],change in vivo at 100 mg/kg,"active Arthus reaction; Rattus norvegicus, po, 4 h, oral dose 100 mg/kg, 4 h after ovalbumin challenge, read-out: Active Arthus reaction % change",26%
same,LD50 at 168 h,Acute toxicity; ip,150 to 300 mg/kg
O=P(O)(O)C1CC(c2ccccn2)=NO1 (stereo not drawn) [Example 42],change in vivo at 35 mg/kg,active Arthus reaction; [2],-33%
same,LD50 at 168 h,Acute toxicity; iv,> 200 mg/kg
O=P(O)(O)C1CC(c2ccncc2)=NO1 (stereo not drawn) [Example 43],change in vivo at 50 mg/kg,active Arthus reaction; [4],-14%
same,LD50 at 168 h,Acute toxicity; iv,> 200 mg/kg
O=P(O)(O)C1CC(c2cccc3ccccc23)=NO1 (stereo not drawn) [Example 45],change in vivo at 50 mg/kg,active Arthus reaction; [4],-25%
same,LD50 at 168 h,Acute toxicity; ip,75 to 150 mg/kg
same,Leucine aminopeptidase IC50,leucine aminopeptidase,92 μug/ml
O=P(O)(O)c1cc(-c2ccccc2)no1 [Example 46],change in vivo at 50 mg/kg,active Arthus reaction; [4],-36%
same,LD50 at 168 h,Acute toxicity; iv,> 200 mg/kg
CCCC1=NOC(P(=O)(O)O)C1 (stereo not drawn) [Example 47],change in vivo at 25 mg/kg,active Arthus reaction; [5],-35%
same,LD50 at 168 h,Acute toxicity; iv,> 200 mg/kg
same,Leucine aminopeptidase IC50,leucine aminopeptidase,35 μug/ml
O=P(O)(O)C1CC(Cc2ccccc2)=NO1 (stereo not drawn) [Example 49],change in vivo at 50 mg/kg,active Arthus reaction; [4],-59%
same,LD50 at 168 h,Acute toxicity; iv,> 200 mg/kg
O=P(O)(O)c1cc(-c2ccccn2)no1 [Example 50],change in vivo at 25 mg/kg,"active Arthus reaction; Rattus norvegicus, po, 4 h, oral dose 25 mg/kg, 4 h after ovalbumin challenge, read-out: Active Arthus reaction % change",-18%
same,LD50 at 168 h,Acute toxicity; iv,> 200 mg/kg
O=P(O)(O)c1cc(-c2ccncc2)no1 [Example 51],change in vivo at 50 mg/kg,active Arthus reaction; [4],17%
same,LD50 at 168 h,Acute toxicity; iv,> 200 mg/kg
O=P(O)(O)C1CC(C=Cc2ccccc2)=NO1 (stereo not drawn) [Example 52],change in vivo at 50 mg/kg,active Arthus reaction; [4],-15%
"CCOP(=O)(C1CC(c2ccccc2)=NO1)N1CCCC1 (stereo not drawn) [Example 55, 3-Phenyl-2-isoxazolin-5-yl(P-ethoxy)phosphonic acid pyrrolidide]",change in vivo at 70 mg/kg,active Arthus reaction; [3],-23%
same,LD50 at 168 h,Acute toxicity; iv,> 200 mg/kg
"CCOP(=O)(NCC(=O)OCc1ccccc1)C1CC(c2ccccc2)=NO1 (stereo not drawn) [Example 56, N-[3-Phenyl-2-isoxazolin-5-yl(P-ethoxy)phosphonoyl]glycine benzyl ester]",change in vivo at 100 mg/kg,"active Arthus reaction; Rattus norvegicus, oral dose 100 mg/kg, 4 h after ovalbumin challenge, read-out: Active Arthus reaction % change",35%
same,LD50 at 168 h,Acute toxicity; ip,> 1200 mg/kg
"CN(C)P(=O)(C1CC(c2ccccc2)=NO1)N(C)C (stereo not drawn) [Example 59, 3-Phenyl-2-isoxazolin-5-ylphosphonic tetra methyldiamide]",change in vivo at 50 mg/kg,active Arthus reaction; [4],-25%
same,LD50 at 168 h,Acute toxicity; iv,> 200 mg/kg
"CC(C)(C)C1=NOC(P(C)(=O)O)C1 (stereo not drawn) [Example 64, 3-tert.Butyl-2-isoxazolin-5-yl(P-methyl)phosphinic acid]",change in vivo at 20 mg/kg,active Arthus reaction; [5],-59%
same,LD50 at 168 h,Acute toxicity; iv,> 200 mg/kg
COP(=O)(OC)C1CC(c2ccc(F)cc2)=NO1 (stereo not drawn) [Example 65],LD50 at 168 h,Acute toxicity; ip,> 300 mg/kg
"COC(=O)c1ccc(C2=NOC(P(=O)(OC)OC)C2)cc1 (stereo not drawn) [Example 66, Dimethyl 3-(4-methoxycarbonylphenyl)-2-isoxazolin-5-ylphosphonate]",change in vivo at 50 mg/kg,"active Arthus reaction; Rattus norvegicus, oral dose 50 mg/kg, 4 h after ovalbumin challenge",-28%
"O=P(O)(O)C1CC(c2ccc(F)cc2)=NO1 (stereo not drawn) [Example 67, 3-(4-Fluorophenyl)-2-isoxazolin-5-ylphosphonic acid]",change in vivo at 50 mg/kg,active Arthus reaction; [4],-35%
same,Leucine aminopeptidase IC50,leucine aminopeptidase,57 μug/ml
"O=P(O)(O)C1CC(c2ccccc2O)=NO1 (stereo not drawn) [Example 73, 3-(2-Hydroxyphenyl)-2-isoxazolin-5-ylphosphonic acid]",change in vivo at 35 mg/kg,active Arthus reaction; [2],-44%
same,LD50 at 168 h,Acute toxicity; ip,150 to 300 mg/kg
"CC(C)(C)c1cc(P(=O)(O)O)on1 [Example 77, Diammonium 3-tert.butyl-5-isoxazolylphosphonate]",change in vivo at 35 mg/kg,active Arthus reaction; [5],-20%
"CP(=O)(O)CC1CC(Cl)=NO1 (stereo not drawn) [Example 79, 3-Chloro-2-isoxazolin-5-ylmethyl(P-methyl)phosphinic acid]",change in vivo at 70 mg/kg,active Arthus reaction; [5],-24%
O=C(O)c1ccc(C2=NOC(P(=O)(O)O)C2)cc1 (stereo not drawn) [Example 87],change in vivo at 35 mg/kg,active Arthus reaction; [2],-29%
O=P(O)(O)C1CC(c2cccnc2)=NO1 (stereo not drawn) [Example 88],change in vivo at 50 mg/kg,active Arthus reaction; [4],-50%
COP(=O)(OC)C1CC(C(C)(C)O)=NO1 (stereo not drawn) [Example 90],Active Arthus reaction % change,"active Arthus reaction; oral dose 50 mg/kg, 4 h after ovalbumin challenge",-31%
CC(C)(C)C1=NOC(CP(C)(=O)O)C1 (stereo not drawn) [Example 99],change in vivo at 35 mg/kg,active Arthus reaction; [5],-32%
same,LD50 at 168 h,Acute toxicity; iv,> 100 mg/kg
CCOC(=O)C1=NOC(P(C)(=O)O)C1 (stereo not drawn) [Example 101],change in vivo at 70 mg/kg,active Arthus reaction; [5],-32%
same,LD50 at 168 h,Acute toxicity; iv,> 100 mg/kg
CP(=O)(O)C1CC(C(=O)O)=NO1 (stereo not drawn) [Example 102],change in vivo at 35 mg/kg,active Arthus reaction; [5],-35%
CP(C)(=O)C1CC(c2ccccn2)=NO1 (stereo not drawn) [Example 105],change in vivo at 35 mg/kg,active Arthus reaction; [2],-23%
same,LD50 at 168 h,Acute toxicity; iv,> 100 mg/kg
